Measurements: patent publication US20240209028A1, “CNP COMPOUNDS” (priority 2022, published 2024)
Starred links: 1 amine or outer side, 2 acyl side, 3 side chain; linkers in the order of their positions; H or OH if unused. Positions of bridges follow the written chain, without caps; N, C: chain ends. Residues, ends and D or L forms follow the SMILES beside them. *: point of attachment. C18 diacid = O=C(O)CCCCCCCCCCCCCCCCC(=O)*; γGlu = O=C(O)[C@H](CCC(=O)[*:2])N[*:1]; AEEA = NCCOCCOCC(=O)O

Target: T1, human natriuretic peptide receptor 2 (hNPR2) (Homo sapiens, UniProt P20594)
T1 construct: expressed in transfected cells; host or cells: HEK293 (ATCC CRL-1573), clone 35, co-transfected with pGloSensor-42F
T1 sequence (P20594 23-1047): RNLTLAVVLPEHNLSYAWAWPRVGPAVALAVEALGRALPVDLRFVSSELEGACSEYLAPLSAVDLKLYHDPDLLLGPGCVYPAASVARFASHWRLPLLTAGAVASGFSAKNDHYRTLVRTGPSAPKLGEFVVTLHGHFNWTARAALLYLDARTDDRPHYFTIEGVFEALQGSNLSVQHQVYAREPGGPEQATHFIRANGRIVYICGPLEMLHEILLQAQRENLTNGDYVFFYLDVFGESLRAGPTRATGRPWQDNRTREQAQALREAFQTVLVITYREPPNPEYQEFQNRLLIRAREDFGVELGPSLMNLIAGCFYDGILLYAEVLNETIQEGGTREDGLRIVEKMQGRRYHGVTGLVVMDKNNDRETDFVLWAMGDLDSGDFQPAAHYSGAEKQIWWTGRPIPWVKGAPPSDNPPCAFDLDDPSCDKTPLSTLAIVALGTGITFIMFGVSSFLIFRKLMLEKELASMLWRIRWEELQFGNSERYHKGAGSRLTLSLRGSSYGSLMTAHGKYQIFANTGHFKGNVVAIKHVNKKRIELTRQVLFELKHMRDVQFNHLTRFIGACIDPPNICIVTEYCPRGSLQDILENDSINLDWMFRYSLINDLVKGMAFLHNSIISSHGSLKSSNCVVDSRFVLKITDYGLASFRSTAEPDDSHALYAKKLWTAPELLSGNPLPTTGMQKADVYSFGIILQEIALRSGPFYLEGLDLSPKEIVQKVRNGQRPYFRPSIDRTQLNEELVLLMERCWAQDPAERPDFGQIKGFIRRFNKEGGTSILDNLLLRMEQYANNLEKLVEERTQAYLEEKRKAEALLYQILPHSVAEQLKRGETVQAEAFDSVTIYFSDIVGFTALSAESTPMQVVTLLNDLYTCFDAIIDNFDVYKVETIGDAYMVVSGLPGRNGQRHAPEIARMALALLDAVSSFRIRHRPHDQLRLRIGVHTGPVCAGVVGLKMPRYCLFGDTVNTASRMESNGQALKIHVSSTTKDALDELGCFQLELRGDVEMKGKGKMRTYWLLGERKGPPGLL
Experiment: In vitro hNPR2 activity assay (cGMP GloSensor reporter, HEK293)
Type: cell-based
Conditions: potency relative to CNP22 (0065)
In short: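 Potency is the EC50 from a four-parameter logistic fit, also expressed relative to the in-plate CNP22 control (×100), with at least two replicates. Compounds (ten concentrations, […], HSA-free diluent with 1% OVA, 0.01% Tween20) were incubated 30 min at 37 °C on HEK293 cells co-expressing hNPR2 and a GloSensor cGMP luciferase. Luminescence detected with Bright-Glo.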

| Structure (SMILES) | hNPR2 0% HSA. [EC50% rel CNP] [%] |
| --- | --- |
| CC[C@H](C)[C@@H]1NC(=O)[C@H](CCCNC(=N)N)NC(=O)[C@H](CC(=O)O)NC(=O)[C@H](CC(C)C)NC(=O)[C@@H]2CCCN2C(=O)[C@H](CC(C)C)NC(=O)CNC(=O)[C@H](Cc2ccccc2)NC(=O)[C@@H](NC(=O)CNC(=O)[C@H](CO)NC(=O)[C@H](CO)NC(=O)[C@H](CC(C)C)NC(=O)CNC(=O)[C@H](CCCCN)NC(=O)[C@H](CCCCN)NC(=O)[C@H](CCC(N)=O)NC(=O)[C@H](C)NC(=O)CNC(=O)[C@H](Cc2c[nH]cn2)NC(=O)[C@H](Cc2ccc(O)cc2)NC(=O)COCCOCCNC(=O)COCCOCCNC(=O)CC[C@H](NC(=O)CCCCCCCCCCCCCCCCC(=O)O)C(=O)O)CSSC[C@@H](C(=O)O)NC(=O)CNC(=O)[C@H](CC(C)C)NC(=O)CNC(=O)[C@H](CO)NC(=O)[C@H](CC(C)C)NC(=O)[C@H](CO)NC(=O)CNC1=O [compound 1241] ({C18 diacid-γGlu-AEEA-AEEA}-YHGAQKKGLSSGCFGLPLDRIGSLSGLGC-OH; disulfide 13-29) | 30.5 |
| CC[C@H](C)[C@@H]1NC(=O)[C@H](CCCNC(=N)N)NC(=O)[C@H](CC(=O)O)NC(=O)[C@H](CC(C)C)NC(=O)[C@@H]2CCCN2C(=O)[C@H](CC(C)C)NC(=O)CNC(=O)[C@H](Cc2ccccc2)NC(=O)[C@@H](NC(=O)CNC(=O)[C@H](CCC(N)=O)NC(=O)[C@H](CO)NC(=O)[C@H](CC(C)C)NC(=O)CNC(=O)[C@H](CCCCN)NC(=O)[C@H](CCCCN)NC(=O)[C@H](CCC(N)=O)NC(=O)[C@H](C)NC(=O)CNC(=O)[C@H](CCCCN)NC(=O)[C@H](Cc2ccc(O)cc2)NC(=O)[C@H](CCCCN)NC(=O)[C@H](CCCNC(=N)N)NC(=O)[C@H](C)NC(=O)COCCOCCNC(=O)COCCOCCNC(=O)COCCOCCNC(=O)COCCOCCNC(=O)CC[C@H](NC(=O)CC[C@H](NC(=O)CC[C@H](NC(=O)CC[C@H](NC(=O)CC[C@H](NC(=O)CCCCCCCCCCCCCCCCC(=O)O)C(=O)O)C(=O)O)C(=O)O)C(=O)O)C(=O)O)CSSC[C@@H](C(=O)O)NC(=O)CNC(=O)[C@H](CC(C)C)NC(=O)CNC(=O)[C@H](CO)NC(=O)[C@H](CC(C)C)NC(=O)[C@H](CO)NC(=O)CNC1=O [compound 9407] ({C18 diacid-γGlu-γGlu-γGlu-γGlu-γGlu-AEEA-AEEA-AEEA-AEEA}-ARKYKGAQKKGLSQGCFGLPLDRIGSLSGLGC-OH; disulfide 16-32) | 38.6 |
| CC[C@H](C)[C@@H]1NC(=O)[C@H](CCCNC(=N)N)NC(=O)[C@H](CC(=O)O)NC(=O)[C@H](CC(C)C)NC(=O)[C@@H]2CCCN2C(=O)[C@H](CC(C)C)NC(=O)CNC(=O)[C@H](Cc2ccccc2)NC(=O)[C@@H](NC(=O)CNC(=O)[C@H](CCC(N)=O)NC(=O)[C@H](CO)NC(=O)[C@H](CC(C)C)NC(=O)CNC(=O)[C@H](CCCCN)NC(=O)[C@H](CCCCN)NC(=O)[C@H](CCC(N)=O)NC(=O)[C@H](C)NC(=O)CNC(=O)[C@H](CCCCN)NC(=O)[C@H](Cc2ccc(O)cc2)NC(=O)COCCOCCNC(=O)COCCOCCNC(=O)COCCOCCNC(=O)COCCOCCNC(=O)CC[C@H](NC(=O)CC[C@H](NC(=O)CC[C@H](NC(=O)CCCCCCCCCCCCCCCCC(=O)O)C(=O)O)C(=O)O)C(=O)O)CSSC[C@@H](C(=O)O)NC(=O)CNC(=O)[C@H](CC(C)C)NC(=O)CNC(=O)[C@H](CO)NC(=O)[C@H](CC(C)C)NC(=O)[C@H](CO)NC(=O)CNC1=O [compound 9480] ({C18 diacid-γGlu-γGlu-γGlu-AEEA-AEEA-AEEA-AEEA}-YKGAQKKGLSQGCFGLPLDRIGSLSGLGC-OH; disulfide 13-29) | 45.2 |
| CC[C@H](C)[C@@H]1NC(=O)[C@H](CCCNC(=N)N)NC(=O)[C@H](CC(=O)O)NC(=O)[C@H](CC(C)C)NC(=O)[C@@H]2CCCN2C(=O)[C@H](CC(C)C)NC(=O)CNC(=O)[C@H](Cc2ccccc2)NC(=O)[C@@H](NC(=O)CNC(=O)[C@H](CO)NC(=O)[C@H](CO)NC(=O)[C@H](CC(C)C)NC(=O)CNC(=O)[C@H](CCCCN)NC(=O)[C@H](CCCCN)NC(=O)[C@H](CCC(N)=O)NC(=O)[C@H](C)NC(=O)CNC(=O)[C@H](CCCCN)NC(=O)[C@H](Cc2ccc(O)cc2)NC(=O)[C@H](CCCCN)NC(=O)[C@H](CCCNC(=N)N)NC(=O)[C@H](C)NC(=O)[C@H](CCC(N)=O)NC(=O)[C@@H]2CCCN2C(=O)[C@H](Cc2c[nH]cn2)NC(=O)[C@H](CCC(=O)O)NC(=O)[C@H](CCC(N)=O)NC(=O)CC[C@H](NC(=O)CC[C@H](NC(=O)CC[C@H](NC(=O)CC[C@H](NC(=O)CC[C@H](NC(=O)CCCCCCCCCCCCCCCCC(=O)O)C(=O)O)C(=O)O)C(=O)O)C(=O)O)C(=O)O)CSSC[C@@H](C(=O)O)NC(=O)CNC(=O)[C@H](CC(C)C)NC(=O)CNC(=O)[C@H](CO)NC(=O)[C@H](CC(C)C)NC(=O)[C@H](CO)NC(=O)CNC1=O [compound 9482] ({C18 diacid-γGlu-γGlu-γGlu-γGlu-γGlu}-QEHPQARKYKGAQKKGLSSGCFGLPLDRIGSLSGLGC-OH; disulfide 21-37) | 39.4 |
| CC[C@H](C)[C@@H]1NC(=O)[C@H](CCCNC(=N)N)NC(=O)[C@H](CC(=O)O)NC(=O)[C@H](CC(C)C)NC(=O)[C@@H]2CCCN2C(=O)[C@H](CC(C)C)NC(=O)CNC(=O)[C@H](Cc2ccccc2)NC(=O)[C@@H](NC(=O)CNC(=O)[C@H](CCC(N)=O)NC(=O)[C@H](CO)NC(=O)[C@H](CC(C)C)NC(=O)CNC(=O)[C@H](CCCCN)NC(=O)[C@H](CCCCN)NC(=O)[C@H](CCC(N)=O)NC(=O)[C@H](C)NC(=O)CNC(=O)[C@H](CCCCN)NC(=O)[C@H](Cc2ccc(O)cc2)NC(=O)[C@H](CCCCN)NC(=O)[C@H](CCCNC(=N)N)NC(=O)[C@H](C)NC(=O)[C@H](CCC(N)=O)NC(=O)[C@@H]2CCCN2C(=O)[C@H](Cc2c[nH]cn2)NC(=O)[C@H](CCC(=O)O)NC(=O)[C@H](CCC(N)=O)NC(=O)COCCOCCNC(=O)COCCOCCNC(=O)COCCOCCNC(=O)COCCOCCNC(=O)CC[C@H](NC(=O)CC[C@H](NC(=O)CC[C@H](NC(=O)CC[C@H](NC(=O)CC[C@H](NC(=O)CCCCCCCCCCCCCCCCC(=O)O)C(=O)O)C(=O)O)C(=O)O)C(=O)O)C(=O)O)CSSC[C@@H](C(=O)O)NC(=O)CNC(=O)[C@H](CC(C)C)NC(=O)CNC(=O)[C@H](CO)NC(=O)[C@H](CC(C)C)NC(=O)[C@H](CO)NC(=O)CNC1=O [compound 1406] ({C18 diacid-γGlu-γGlu-γGlu-γGlu-γGlu-AEEA-AEEA-AEEA-AEEA}-QEHPQARKYKGAQKKGLSQGCFGLPLDRIGSLSGLGC-OH; disulfide 21-37) | 59.1 |
| CC[C@H](C)[C@@H]1NC(=O)[C@H](CCCNC(=N)N)NC(=O)[C@H](CC(=O)O)NC(=O)[C@H](CC(C)C)NC(=O)[C@@H]2CCCN2C(=O)[C@H](CC(C)C)NC(=O)CNC(=O)[C@H](Cc2ccccc2)NC(=O)[C@@H](NC(=O)CNC(=O)[C@H](CO)NC(=O)[C@H](CO)NC(=O)[C@H](CC(C)C)NC(=O)CNC(=O)[C@@H](NC(=O)[C@H](Cc2c[nH]cn2)NC(=O)[C@H](CCC(N)=O)NC(=O)[C@H](C)NC(=O)CNC(=O)[C@H](Cc2c[nH]cn2)NC(=O)[C@H](Cc2ccc(O)cc2)NC(=O)COCCOCCNC(=O)COCCOCCNC(=O)CC[C@H](NC(=O)CCCCCCCCCCCCCCCCC(=O)O)C(=O)O)[C@@H](C)O)CSSC[C@@H](C(=O)O)NC(=O)CNC(=O)[C@H](CC(C)C)NC(=O)CNC(=O)[C@H](CO)NC(=O)[C@H](CC(C)C)NC(=O)[C@H](CO)NC(=O)CNC1=O [compound 1304] ({C18 diacid-γGlu-AEEA-AEEA}-YHGAQHTGLSSGCFGLPLDRIGSLSGLGC-OH; disulfide 13-29) | 20.7 |
